For series [1], the system named is SUM159 PACR cells. The series can be described thus: Morphology and EMT/lineage markers in SUM159 PACR cells. It is filed as cell-based, human. The method, then: Cells were rinsed twice in ice-cold PBS. Total RNA was extracted using Trizol (Invitrogen) and column-purified with RNeasy kits (Qiagen). cDNA synthesis was performed with 500 ng of total RNA at 37° C. for 2 h using the SuperScript III First-Strand Synthesis System (Thermo Fisher Scientific), and subsequently diluted 5-fold. mRNA levels were measured with gene-specific primers listed below using the ABI Prism 7900HT Sequence Detection System 2.2 (Applied Biosystems). Results were normalized to GAPDH and analyzed using SDS 2.2 software.

For series [2], the system named is NAMEC8. Briefly: Expression of EMT and lineage markers (qRT-PCR, immunoblot, immunofluorescence) in NAMEC8. It is filed as cell-based, human. A digest of the protocol:
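qRT-PCR on Trizol/RNeasy RNA (500 ng into cDNA, 37 °C 2 h), normalized to GAPDH. Immunoblots used 50-80 μg RIPA lysate on 4-12% Bis-Tris gels with ECL detection. Immunofluorescence was on paraformaldehyde-fixed, Triton-permeabilized cells with Alexa Fluor-488/-594 secondaries and DAPI, imaged by epifluorescence at 100-200×.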

Series [3] has as its system NAMEC8-Ras, BC2.2 and BC22.1 tumors. The series can be described thus: Xenograft treatment with oral bexarotene. It is filed as in vivo, NSG mice. The source says: Primary human breast cancer samples were obtained from the National Cancer Centre Singapore (NCCS) with patients' consent and under an IRB approved protocol (2015/2976). All animal experiments were approved by the Agency for Science Technology and Research Singapore-Biological Resource Centre IACUC (Protocol number 171286). Patient-derived breast tumor fragments (approximately 3×1×1 mm) were inserted bilaterally into the inguinal mammary fat pads of 6-8 week-old NSG female mice for initial establishment of tumors, and subsequently expanded in NSG mice once established. In this study, established tumor fragments of BC2.2 were implanted into cohorts of 6-8 week-old female NSG mice. For BC22.1, 1×10^6 cells were injected subcutaneously into both flanks of NSG mice.
All animal experiments were approved by the Agency for Science Technology and Research Singapore-Biological Resource Centre IACUC (Protocol number 140940). For pre-treated SUM159 and MCF7-Ras cells, 1×10^6 cells were suspended in 100 μl media containing 50% matrigel and injected subcutaneously into both flanks of female NSG mice. The NSG mice were checked for tumor by palpation once a week and tumors were harvested when they reached ˜15 mm in diameter. For treatment in NSG mice, 1×10^5 NAMEC8-Ras cells were suspended in 100 μl media containing 50% matrigel and injected subcutaneously into both flanks of NSG mice. The NSG mice were checked for tumor formation by palpation and when tumors were about 3 mm, mice were randomized into two groups: vehicle (5% DMSO in corn oil) and treatment (Bexarotene, 100 mg/kg/day oral dosing). Tumor size was measured every week using Vernier calipers and mice were sacrificed when tumors reached ˜15 mm or after ˜4 weeks of treatment. For patient-derived cells, 2×10^6 cells were injected subcutaneously per site in NSG mice. […]
The tumor sections were fixed overnight in 4% paraformaldehyde, immersed in 70% ethanol, and sent to the Advanced Molecular Pathlogy Lab, IMCB for paraffinization. […] The fluorescence image analysis and the fluorescence overlay image were obtained with the Axio Vision Rel. […]

Series [4] deals with SUM159 PACR cells. Briefly: Cell viability IC50 in SUM159 PACR cells. The following applies: SUM159 PACR.
For series [5], the system named is NAMEC8 and SUM159, BC2.2 and BC22.1. The series can be described thus: In vitro measurement of IC50 of 5-FU/PAC in bexarotene-treated cells. The series is classed as cell-based, human. The following applies: bexarotene-treated vs DMSO cells. An excerpt: (§1) Data were normalized to vehicle controls.
Series [6] relates to NAMEC8. The series can be described thus: Dose response to Raloxifene HCl of bexarotene-treated cells. The series is classed as cell-based, human. Particulars: bexarotene-treated vs DMSO cells.
Text: as §1

Entries after “also recorded” stand apart in the source; their conditions may differ.

For `C=C(c1ccc(C(=O)O)cc1)c1cc2c(cc1C)C(C)(C)CCC2(C)C` [Bexarotene], the “phenotype (morphology, epithelial and luminal markers)” value in the series with SUM159 PACR cells [1] was “changed from a mesenchymal-like to an epithelial-like phenotype”. Besides, the “MET phenotype: induction and durability after drug withdrawal” value in the series with NAMEC8 [2] (drugs removed for at least seven days) is listed as “gradually reverted to a more mesenchymal cell phenotype; also recorded: could cause an MET”. Also, in the series on NAMEC8 [2] (transcript and protein), the “expression of EMT and basal/luminal markers” value was “downregulation of mesenchymal signature markers (ZEB1, SERPINE1, FN1, SLUG) and the concomitant gain of epithelial marker CDH1”. Also, the “tumor growth rate and burden” value in series [3] (100 mg/kg/day oral dosing vs vehicle) was “significant reductions in tumor growth rate and burden”. Also, the “retinoid target gene expressions in tumors” value in series [3] (STRA6, CRAPBP2, DHRS3, ANGPTL4, IP6K3, ACSL5) is “upregulated by at least two-fold”. Moreover, the “EMT markers in tumor sections (immunofluorescence)” value in series [3] (tumors from bexarotene-treated mice) was “expression of E-cadherin, and the loss of fibronectin”. In addition, the “sensitivity to 5-FU of bexarotene-treated PACR cells” value with SUM159 PACR cells [4] is reported as “gained sensitivity to an alternative chemotherapeutic drug, 5-flurouracil (5-FU)”. In addition, in series [5], the “conferred susceptibility to 5-FU or paclitaxel” value is listed as 4-6 folds. Moreover, the “difference in drug sensitivity to Raloxifene hydrochloride” value with NAMEC8 [6] is given as “moderate two-fold”.

For the origin of these results see US12667546B2, “Methods for manipulating cell state transitions in cancer” (AGENCY FOR SCIENCE, TECHNOLOGY AND RESEARCH, priority 2018, dated 2026).
